The values below are quoted from earlier work in the CATMoS acute toxicity set (Mansouri et al. 2021).

Structures are written as SMILES. Several values for one entry are separate records, joined by “and”; a condition that tells them apart may be missing. Equal values may be shown once.

This data set can be described thus: rat acute oral toxicity. The conditions noted are these: in vivo.
One may read the LD50 as the dose expected to kill half of the subjects tested. Consider `CC(=O)OCC=C(C)C`, for which the median lethal dose (LD50) is 2900 mg/kg. With `CCOC(C)C#N` (stereo not drawn), the 50% lethal dose (LD50) is 2860 mg/kg. For `Nc1ccc(C(=O)Nc2ccccc2N)cc1`, the LD50 was 95 mg/kg.

Turning to `O=[N+]([O-])c1c(Br)ccc2[nH]c(C(F)(F)F)nc12`, the median lethal dose (LD50) was 13.5 mg/kg. Consider `Oc1ccc2nc(C(F)(F)F)[nH]c2c1`, for which the LD50 was 41 mg/kg.

Regarding `CCOP(=O)(OCC)SCSP(=O)(OCC)OCC`, the LD50 was 12.8 mg/kg. Turning to `CNCCCN`, the LD50 was 951 mg/kg. Turning to `C=CC1OCC2(CO1)COC(C=C)OC2` (stereo not drawn), the LD50 is 3250 mg/kg. `CN1CSC(=S)N(C)C1`: the median lethal dose (LD50) was 320 mg/kg. On to `CN1Cc2c(N)cccc2C(c2ccccc2)C1` (stereo not drawn), for which the 50% lethal dose (LD50) was 267 mg/kg and 430 mg/kg. On to `NCCNCCNCc1ccccc1O`, for which the LD50 was 2300 mg/kg. Regarding `CCOP(=S)(OCC)Sc1ccc(C)cc1`, the LD50 is 316 mg/kg. On to `Cc1ncc([N+](=O)[O-])n1CC(O)CCl` (stereo not drawn), for which the 50% lethal dose (LD50) is 1780 mg/kg.

As for `CN(C)C(=O)CN1C(=O)C2C3C=C(C(O)(c4ccccc4)c4ccccn4)C(C3=C(c3ccccc3)c3ccccn3)C2C1=O` (stereo not drawn), the LD50 is 5.9 mg/kg. Take `CCCN(CCC)S(=O)(=O)c1ccc(C(=O)O)cc1`: the LD50 was 1600 mg/kg. Regarding `C[C@@H]1CN(CCCn2c3ccccc3c3ccccc32)C[C@H](C)N1`, the 50% lethal dose (LD50) was 907 mg/kg. As for `CC(Cl)(Cl)[N+](=O)[O-]`, the median lethal dose (LD50) is 410 mg/kg.

With `O=[N+]([O-])c1ccc(OP(=O)(OCCCl)OCCCl)cc1`, the LD50 is 37 mg/kg. Turning to `Cc1ccc(C)c(O)c1`, the LD50 is 444 mg/kg. Regarding `FC(F)(F)c1cccc(C2CNCCO2)c1` (stereo not drawn), the LD50 is 271 mg/kg. Consider `C1CN1c1nc(N2CC2)nc(N2CC2)n1`, for which the median lethal dose (LD50) is 13 mg/kg.

In the case of `CC(Cc1ccc2c(c1)OCO2)NCC(O)c1ccc(O)c(O)c1` (stereo not drawn), the 50% lethal dose (LD50) was 865 mg/kg.

Consider `CC1(C)C2CC=C(CCO)C1C2` (stereo not drawn), for which the LD50 is 890 mg/kg. With `N#CC(Cl)CCl` (stereo not drawn), the LD50 is 22 mg/kg.

Take `C/C=C/C=C/C=O`: the median lethal dose (LD50) was 300 mg/kg.

On to `Clc1ccc(OCC2=NCCN2)cc1Cl`, for which the LD50 was 100 mg/kg.

In the case of `Fc1ccc([C@@H]2CCNC[C@H]2COc2ccc3c(c2)OCO3)cc1`, the LD50 is 415 mg/kg. On to `CN(C)CCCC1c2ccccc2Nc2ccc(Cl)cc21` (stereo not drawn), for which the LD50 was 379 mg/kg.

On to `CCCCSc1ccc(C(SCCN(C)C)c2ccccc2)cc1` (stereo not drawn), for which the LD50 is 3800 mg/kg. Regarding `O=P(CCCl)(OCCCl)OCCCl`, the 50% lethal dose (LD50) is 880 mg/kg. Consider `O=c1ccc(=O)[nH][nH]1`, for which the LD50 was 10800 mg/kg. Take `CCOC(C1=NCCCN1)c1ccc(Cl)c(Cl)c1` (stereo not drawn): the median lethal dose (LD50) is 370 mg/kg. Take `CC(=O)O[C@H]1C[C@H](O[C@H]2[C@@H](OC=O)C[C@H](O[C@H]3[C@@H](OC=O)C[C@H](O[C@H]4CC[C@@]5(C)[C@H](CC[C@@H]6[C@@H]5CC[C@]5(C)[C@@H](C7=CC(=O)OC7)[C@@H](OC=O)C[C@]65O)C4)O[C@@H]3C)O[C@@H]2C)O[C@H](C)[C@H]1OC=O`: the LD50 was 39 mg/kg. Regarding `Cc1cccc(C(=O)Cl)c1`, the 50% lethal dose (LD50) is 3440 mg/kg. Consider `Cc1ccc(O)c([N+](=O)[O-])c1`, for which the LD50 is 3360 mg/kg. With `CCCSP(=O)(OCC)Oc1c(Cl)cc(Cl)cc1Cl` (stereo not drawn), the 50% lethal dose (LD50) was 151 mg/kg. `CN1[C@@H]2CC[C@H]1C[C@@H](OC(c1ccccc1)c1ccc(Cl)cc1)C2` (stereo partly drawn): the LD50 was 364 mg/kg. Consider `CC(=O)OCCCc1ccccc1`, for which the 50% lethal dose (LD50) was 4700 mg/kg. In the case of `CCOC(=O)N(C)CC1CCN(c2nc(N)c3cc(OC)c(OC)cc3n2)CC1`, the median lethal dose (LD50) was 660 mg/kg. In the case of `CCC(C)C(C(=O)OCC[N+](C)(CC)CC)c1ccccc1` (stereo not drawn), the 50% lethal dose (LD50) was 1260 mg/kg.

Turning to `Cn1c(=O)c2c(ncn2CCCN2CCN(CCCSc3ccccc3)CC2)n(C)c1=O`, the LD50 was 1600 mg/kg. For the molecule `O=C(O)c1ccccc1-c1ccccc1CO`, the LD50 was 6500 mg/kg. Turning to `ClCc1ccccn1`, the LD50 was 316 mg/kg. For the molecule `CCC(=O)O[C@](Cc1ccccc1)(c1ccccc1)[C@H](C)CN(C)C`, the 50% lethal dose (LD50) was 84 mg/kg. For `Cc1c(Cl)cccc1Nc1ccccc1C(=O)O`, the LD50 was 225 mg/kg. For the molecule `O=C1C2=C(CCCC2)C(=O)N1c1ccc(Cl)cc1`, the 50% lethal dose (LD50) is 24000 mg/kg. Take `O=CCC1CC2CC1C1CCCC21` (stereo not drawn): the median lethal dose (LD50) is 500 mg/kg. Regarding `CN1C(=O)OC(C)(C)C1=O`, the LD50 is 2140 mg/kg.

As to `OCCN1CC1`, the 50% lethal dose (LD50) is 74 mg/kg.

As to `O=C(NP(=O)(N1CC1)N1CC1)c1cc(I)ccc1I`, the 50% lethal dose (LD50) was 500 mg/kg. In the case of `Cc1onc2c(=O)n(C)nc(-c3ccccc3)c12`, the 50% lethal dose (LD50) was 1000 mg/kg. On to `O=C(OCC=Cc1ccccc1)c1ccccc1`, for which the LD50 was 4000 mg/kg.

Take `Cc1cccc(C)c1N(C(=O)CCl)C1CCOC1=O` (stereo not drawn): the LD50 was 2600 mg/kg.

As for `CC(=O)C=Cc1ccc(-c2ccccc2)cc1`, the median lethal dose (LD50) is 2230 mg/kg. With `CCOC(C1=NCC(C)(C)CN1)c1ccc(Cl)cc1` (stereo not drawn), the LD50 is 190 mg/kg.

As for `OC(c1ccccc1)(c1ccc(Cl)cc1)C1CCCCN1` (stereo not drawn), the 50% lethal dose (LD50) is 400 mg/kg. In the case of `C[C@H]1O[C@@H](n2cc(F)c(=O)[nH]c2=O)[C@H](O)[C@@H]1O`, the LD50 was 3390 mg/kg. On to `CC(C)CCON=O`, for which the LD50 was 505 mg/kg. `CC=CC(C)OC` (stereo not drawn): the median lethal dose (LD50) was 1210 mg/kg. For `CN(C)CCOC(C)(c1ccccc1)c1ccc(Cl)cc1` (stereo not drawn), the 50% lethal dose (LD50) is 1000 mg/kg. With `O=C(O)Cc1ccc2c(c1)C(=O)c1ccccc1CN2`, the 50% lethal dose (LD50) was 810 mg/kg.

As to `CON=CC1=CCCN(C)C1`, the 50% lethal dose (LD50) was 300 mg/kg.

As to `Nc1ccc(C(F)(F)F)cc1NC(=O)c1cccnc1`, the LD50 was 850 mg/kg.
